Assay results as given in US20240374558A1, “PREPARATION OF PHENE[…] […] STEREOISOMERS THEREOF AND PRECURSORS THEREOF” (priority 2022, published 2024).
pEC50, pIC50, pKi: −log10 of the molar value. Where two headings read alike, the source gives them in different places.

Experiments:
[1] = self-administration, healthy volunteers; Lourdes et al. 2021; cited from earlier work
[2] = system: rat forced swim test (FST); experiment: Rat forced swim test (FST); assay type: in vivo; conditions: 10 mg/kg, IP
Experimental: The forced swim test (FST) is a classic model to assess the antidepressant-like activity of compounds that has been in use for over 40 years (Porsolt et al. (1977) Nature 266:730-732; Detke et al. (1995) Psychopharmacology 121:66-72). […] A single dose of 5 mg/kg methylone reduces immobility by approximately 50% compared to vehicle-treated controls, whereas a 15 mg/kg dose reduces immobility by nearly 100%. Accompanying changes in climbing and/or swimming behavior reflect noradrenergic and serotonergic activities of methylone, respectively.
All FST studies are performed and scored by an experimenter blind to treatment group and according to standard protocols. Briefly, rats are placed in a circular plexiglass container filled with water. Water temperature is maintained at 22-25° C. and changed for every animal. Day 1 (Training) consists of a 15 min acclimation trial, and Day 2 (Testing, 24 h later) consists of the 5 min test. A time sampling procedure is employed where animals are observed every 5 seconds for the duration of the test session (60 counts or 5 minutes) and scored for immobility (defined as the failure to struggle), swimming (defined as a circular movement around the tank), or climbing (defined as an upwards escape behavior). Data are expressed as the percent of the testing session (e.g., the number of immobility counts divided by 60). A p-value less than 0.05 indicates statistical significance after typical statistical analyses (e.g., unpaired t-test or ANOVA).
To determine that the prodrug and/or enantiomer has an antidepressant-like effect and to compare it to methylone, rats are treated with each compound 30 min prior to testing. Additional tests are run 24, 72, 168 hours post-dose or longer. Effects on Fear Extinction in a Model of Post-Traumatic Stress Disorder (PTSD)
Racemic methylone (10 mg/kg, IP) has a maximal antidepressant-like effect in the rat forced swim test (FST), reducing immobility by nearly 100% compared to vehicle treated controls. […]

[3] = target: T1, norepinephrine transporter (NET) (Rattus norvegicus, UniProt Q63380); experiment: Competition radioligand binding, [3H]Nisoxetine, brain synaptosome membranes; design: species or system rat (Sprague Dawley)
T1 construct: hippocampus plus overlying occipital cortex for norepinephrine transporter assays; from tissue
Excerpt: Rat brain (Sprague Dawley, 200-250 g) synaptosomes were isolated from midbrain and hindbrain for serotonin transporter assays, striatum for dopamine transporter assays, and hippocampus plus overlying occipital cortex for norepinephrine transporter assays. Radioligands used were: [^3H]Citalopram 81.4 Ci/mmol (PerkinElmer NET1039250UC; Lot No. 2960876). [3H]WIN35428 82.8 Ci/mmol (PerkinElmer NET1033250UC; Lot No. 2891473). [^3H]Nisoxetine 79.2 Ci/mmol (PerkinElmer NET1084250UC; Lot No. 2970324). Non-specific compounds used were: Citalopram (Tocris Bioscience 1427). JHW007 (Tocris Bioscience 4351). Nomifensine (Abcam abl46004). Test Compounds for the study were: racemic methylone HCl; (R)-methylone HCl; (S)-methylone HCl.
For membrane preparations, rat brains were dissected, tissue was added to ice-cold lysis buffer (50 mM Tris HCl; 5 mM MgCl2; 5 mM EDTA; protease inhibitor cocktail) and homogenized. […] A sample of the homogenate was analyzed for protein content using the MERCK® BCA assay. […]
Competition binding assays were carried out in 96-well polypropylene plates in a final volume of 250 μL per well. […] Filters were then dried under a warm air stream, sealed in polyethylene, scintillation cocktail added, and the radioactivity counted in a WALLAC® TriLux 1450 MicroBeta counter. […] Ki was subsequently calculated using the ChengPrusoff equation.

NET = NET (Rattus norvegicus, UniProt Q63380); experiment: NE release study; assay type: biochemical
[4] = XRPD analysis of pre- and post-DVS samples (form stability); assay type: physicochemical; conditions: after DVS 5-95-5% RH
Experimental: Two lots of methylone HCl samples were submitted to evaluate the stability of the solid forms under various humidity conditions. Dynamic vapor sorption (DVS) analysis was performed to evaluate the kinetic hygroscopicity and assess if variable humidity XRPD would be necessary, as well as to determine the appropriate humidity condition(s) for such XRPD analysis. Both pre- and post-DVS samples were analyzed by conventional XRPD for solid form confirmation or any potential form changes.
Each sample was prepared in a silicon low background holder using light manual pressure to keep the sample surface flat and level with the reference surface of the sample holder. The single crystal Si low background holder has a circular recess (10 mm diameter and about 0.2 mm depth) that holds the sample. The Rigaku Smart-Lab diffraction system used was configured for Bragg-Brentano reflection geometry using a line source X-ray beam. The Bragg-Brentano geometry was controlled by passive divergence and receiving slits with the sample itself acting as the focusing component for the optics.

open field test (OFT) [5] = conditions: 5, 10, 20 mg/kg, SC, rats; Stefkovi et al. 2017; cited from earlier work
open field test (OFT) [6] = experiment: Open field test (OFT); design: species or system rats; conditions: rat, in vivo
Experimental: Additional behavioral testing including the elevated plus maze (EPM) and thigmotaxis in the open field test (OFT) are used to assess the anxiolytic effects of methylone and its prodrugs in mice or rats. […] These models are described in greater detail below. Prodrugs are screened in these behaviors to the anxiolytic efficacy of each compound.
Compounds are screened for their effects on both parameters. Briefly, rodents are assessed in a 30 minute OFT using an automated activity monitoring system. Rodents are acclimated to the room 30 minutes before the start of testing. The following parameters are captured: Horizontal distance travelled, overall ambulatory time, and ambulatory counts. Vertical activity (time and counts), Time in the Center vs. Periphery data are reported in 5-minute bins as well as total time.

PTSD symptoms = conditions: clinical case series of 21 individuals; cited from earlier work
mouse model of PTSD = experiment: Fear extinction in a mouse model of PTSD; assay type: in vivo; conditions: 30 mg/kg, IP
Experimental: FIGS. 1A-1D: Methylone improves fear extinction recall in a mouse model of PTSD. (FIG. 1A) Schematic of experimental design. A single CS-US (tone-shock) pairing on day 1 was followed by 6 CS presentations in a novel context (context B). Methylone or saline vehicle was injected 30 min prior to extinction training on day 2. On day 3, the time spent freezing to the CS was quantified. […] (FIG. 1C) The time freezing before vs. during each of 6 cues on day 3 (to control for locomotor effects) are shown. There was a significant cue x drug interaction (F(5,130)=2.409, p<0.05). […] N=12 for methylone group (30 mg/kg, IP, orange diamonds) and N=16 for saline control group (black squares). *p<0.05
Effective PTSD treatments facilitate the disassociation between a traumatic memory and the patient's fear response, making cues for the traumatic memory evoke less of a fear response. This is modeled in the mouse fear extinction paradigm which takes place over 3 days. On day 1 (fear conditioning), mice are trained to acquire a “traumatic memory,” namely associating the conditioned stimulus (CS, tone) to the unconditioned stimulus (US, foot shock). On day 2 (extinction training), they are trained to forget the traumatic memory association by presenting the CS 6 times (with no US) in a novel environment. On day 3 (extinction recall), the mice are “asked” if that tone (CS) still elicits a fearful response, as measured by the time spent freezing when the tone is presented. Less time freezing means better extinction recall. Drugs that improve extinction recall reduce freezing time on day 3, and, therefore, show potential as a PTSD treatment.
Using these methods, prodrugs and/or enantiomers are administered to mice and tested for efficacy in the fear extinction model to evaluate their efficacy to treat PTSD and other memory disorders. Anxiolytic Effects in Other Behavioral Anxiety Models

[7] = Pharmacokinetics of methylone after a single IV, PO or IP administration (LC-MS/MS of plasma); assay type: in vivo, male Sprague Dawley rats
Experimental: The pharmacokinetic properties of methylone after a single administration intravenously (IV), intraperitoneally (IP), or by oral gavage (PO) in male Sprague Dawley rats has been determined using a liquid chromatography tandem mass spectrometry (LC-MS/MS) method that has been established and validated for methylone in the rat. Rats (n=3 per group) received a single dose of methylone: 5 mg/kg IV, 15 mg/kg IP, or 15 mg/kg PO.
To investigate whether the prodrug extends the half-life or alters other basic pharmacokinetic properties of methylone (e.g., Cmax or Tmax), rats are treated with each prodrug IV, IP, or PO. For each compound, three groups of rats are treated as follows: For group 1, a single dose of methylone is administered to 3 male Sprague-Dawley rats by IV bolus at 5 mg/kg. For group 2, a single dose of methylone is administered to 3 male Sprague-Dawley rats by oral gavage (PO) at 15 mg/kg. For group 3, a single dose of methylone is administered to 3 male Sprague-Dawley rats by IP at 15 mg/kg. For all groups, blood samples are collected from each animal at 0.083, 0.25, 0.5, 1, 2, 4, 8, 12, and 24 hours post-dose for the determination of plasma concentrations. The plasma concentrations are quantified by liquid chromatography tandem mass spectrometry (LC-MS/MS). The bioanalytical assay has been established and validated, providing a lower limit of quantification (LLOQ) of 1 ng/mL and an upper limit of quantification (ULOQ) of 3000 ng/mL for methylone. The plasma concentration-time data are analyzed using Phoenix WinNonlin (version 8.3) to characterize the PK properties of the analyte. The non-compartmental analysis model and the linear/log trapezoidal method are applied to calculating the PK parameters.

T1 sequence (Q63380 1-617): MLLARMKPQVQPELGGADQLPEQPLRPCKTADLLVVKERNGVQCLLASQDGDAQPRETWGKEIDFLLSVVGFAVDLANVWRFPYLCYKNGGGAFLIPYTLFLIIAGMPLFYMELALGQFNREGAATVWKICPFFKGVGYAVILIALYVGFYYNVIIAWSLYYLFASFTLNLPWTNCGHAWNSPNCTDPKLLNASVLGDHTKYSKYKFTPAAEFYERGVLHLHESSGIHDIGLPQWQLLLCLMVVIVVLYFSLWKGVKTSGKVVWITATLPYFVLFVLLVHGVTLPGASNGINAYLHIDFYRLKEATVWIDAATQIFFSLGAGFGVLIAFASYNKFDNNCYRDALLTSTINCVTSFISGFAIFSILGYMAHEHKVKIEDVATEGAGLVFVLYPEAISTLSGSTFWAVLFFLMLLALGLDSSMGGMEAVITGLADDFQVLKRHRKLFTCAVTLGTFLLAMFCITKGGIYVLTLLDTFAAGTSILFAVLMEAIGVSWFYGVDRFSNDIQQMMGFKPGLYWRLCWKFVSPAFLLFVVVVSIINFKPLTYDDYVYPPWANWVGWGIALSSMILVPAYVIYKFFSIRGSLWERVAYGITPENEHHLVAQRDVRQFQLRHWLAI
Sequence of NET (Q63380 1-617): as above

Q: With `CNC(C)Cc1ccc2c(c1)OCO2` (centres unmarked) [MDMA, 3,4-methylenedioxymethamphetamine, reference compound] as the compound, how does the “systolic and diastolic blood pressure” value [1] read?
A: Its value is “significant increase”.

Q: For `CNC(C)C(=O)c1ccc2c(c1)OCO2` (racemic) [Racemic methylone, methylone], which “reduction of immobility compared to vehicle treated controls” value [2] is on record?
A: Its value is roughly 100%.

Q: And the pIC50 [3]?
A: Its pIC50 is 5.51.

Q: What about the pKi [3] of the same compound?
A: Its pKi is 5.84.

Q: What about the pEC50 (NET) of the same compound?
A: Its pEC50 is 6.48.

Q: With `CNC(C)C(=O)c1ccc2c(c1)OCO2.Cl` [lot KRR-R&D-2022-II-58, methylone HCl] as the compound, how does the “form changes, post-DVS vs pre-DVS XRPD pattern” value [4] read?
A: The value was “No form changes”.

Q: What does the source list for `CNC(C)C(=O)c1ccc2c(c1)OCO2` (centres unmarked) [Methylone, methylone]?
A: thigmotaxis (time spent hugging the perimeter of the open field) (open field test (OFT) [5]): reduce thigmotaxis; locomotor activity in the OFT (open field test (OFT) [6]): increases locomotor activity; time in the center vs the periphery in the OFT (open field test (OFT) [6]): reduces time spent in the center vs the periphery; patients with improved PTSD symptoms (PTSD symptoms): 81%; fear extinction recall (freezing time during the first cue on day 3) vs saline (mouse model of PTSD): significantly improves fear extinction recall; locomotor changes on day 3 (mouse model of PTSD): No locomotor changes; fear extinction recall (freezing time during the first cue on day 3) vs saline (mouse model of PTSD; listed as methylone): significantly reduced; heart rate [1]: increase in heart rate; systolic and diastolic blood pressure [1]: significant increase; AUC0-last ([7]; Group 1 (IV), 5 mg/kg): 1200 ± 88.2 ng·h/mL; C0 ([7]; Group 1 (IV), 5 mg/kg): 3018 ± 666 ng/mL; Cl ([7]; Group 1 (IV), 5 mg/kg): 68.3 ± 5.40 mL/min/kg; MRT0-last ([7]; Group 1 (IV), 5 mg/kg): 0.439 ± 0.026 h; Vdss ([7]; Group 1 (IV), 5 mg/kg): 1.98 ± 0.230 L/kg; AUC0-last ([7]; Group 2 (PO), 15 mg/kg): 2765 ± 657 ng·h/mL; MRT0-last ([7]; Group 2 (PO), 15 mg/kg): 2.99 ± 0.467 h; T1/2 ([7]; Group 2 (PO), 15 mg/kg): 3.23 ± 1.99 h; Tmax ([7]; Group 2 (PO), 15 mg/kg): 1.33 ± 0.577 h; Cmax ([7]; Group 2 (PO), 15 mg/kg, plasma): 678 ± 243 ng/mL; AUC0-last ([7]; Group 3 (IP), 15 mg/kg): 4305 ± 1179 ng·h/mL; MRT0-last ([7]; Group 3 (IP), 15 mg/kg): 1.07 ± 0.211 h; Cmax ([7]; Group 3 (IP), 15 mg/kg, plasma): 4230 ± 514 ng/mL; Tmax ([7]; male, Sprague Dawley, rat, plasma, Group 3 (IP), 15 mg/kg, read-out: Tmax): 0.25 h
